Read-outs that look alike come from different tables or passages of the source.

The values that follow come from PMC3756936 (Journal of medicinal chemistry, 2013).

For data set [1], the target named is T1, CpIMPDH (Cryptosporidium parvum, UniProt Q8T6T2).
T1 sequence (Q8T6T2 1-400): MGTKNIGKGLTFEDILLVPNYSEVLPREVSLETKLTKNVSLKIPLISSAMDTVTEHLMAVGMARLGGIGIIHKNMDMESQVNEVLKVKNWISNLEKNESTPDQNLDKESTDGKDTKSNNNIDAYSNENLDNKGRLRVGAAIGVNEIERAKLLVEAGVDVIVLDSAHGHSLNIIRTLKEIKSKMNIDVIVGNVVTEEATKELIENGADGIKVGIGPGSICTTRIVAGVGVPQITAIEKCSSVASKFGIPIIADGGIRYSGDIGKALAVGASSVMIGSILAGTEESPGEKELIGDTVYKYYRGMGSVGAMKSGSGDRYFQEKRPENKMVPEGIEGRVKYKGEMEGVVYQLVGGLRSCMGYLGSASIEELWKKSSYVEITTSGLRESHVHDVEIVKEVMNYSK
In words: biochemical. Particulars: for inhibition mechanism with respect to NAD+: best fit; for inhibition mechanism with respect to NAD+ / inhibition mechanism with respect to IMP: in words. The format is biochemical.

In data set [2] the test system is COS. The note with it: African green monkey.
Data set [3] relates to CHO. The note with it: Chinese hamster.
Data set [4] in a line: Mouse liver microsomal stability. The format is in vitro ADME. Particulars: liver microsomes, 37 °C.
For data set [5], the system named is HEK293 cells. The note with it: human.
Data set [6] concerns HeLa. Particulars: human.
Data set [7] deals with Toxo/CpIMPDH (T. gondii strain that relies on CpIMPDH). The data set is described as follows: microbe, parasite or virus in culture. The format is cell-based, Toxoplasma gondii. The note with it: for EC50: Toxoplasma gondii, read-out: EC50 Toxo/CpIMPDH.

Turning to `C[C@H](Oc1cccc2ccccc12)C(=O)Nc1ccc2oc(-c3cncs3)nc2c1` [compound 63, (S)-2-(naphthalene-1-yloxy)-N-(2-(thiazol-5-yl)benzo[d]oxazol-5-yl)propionamide], the Ki in data set [1] (Kis (nM), Substrate IMP) was 1.6 ± 0.7 nM; in data set [1] (Kis (nM), Substrate NAD), 0.9 ± 0.3 nM. Also, the “inhibition mechanism with respect to NAD+” value in data set [1] is given as “competitive”. Also, in data set [1], the “inhibition mechanism with respect to IMP” value is reported as “noncompetitive”.
In turn, `C[C@@H](C(=O)Nc1ccc2oc(-c3ccncc3)nc2c1)c1ccccc1` [compound 72, (R)-2-phenyl-N-(2-(pyridine-4-yl)benzo[d]oxazol-5-yl)propionamide] yielded a Ki in data set [1] (Kis (nM), Substrate IMP) of 100 ± 20 nM. Also, in data set [1] (Kis (nM), Substrate NAD), the Ki turned out to be 40 ± 10 nM. In data set [1], the “inhibition mechanism with respect to NAD+” value is given as “competitive” and the “inhibition mechanism with respect to IMP” value was “noncompetitive”.
Turning to `C[C@H](Oc1cccc(Cl)c1Cl)C(=O)Nc1cc(Cl)c2oc(-c3ccncc3)nc2c1` [compound 68, (S)-N-(7-chloro-2-(pyridin-4-yl)benzo[d]oxazol-5-yl)-2-(2,3-dichlorophenoxy)propionamide], in data set [1], the Ki was determined as 150 ± 30 nM, the “inhibition mechanism with respect to NAD+” value is “competitive” and the “inhibition mechanism with respect to IMP” value was “noncompetitive”. In addition, in data set [1] (Kis (nM), Substrate IMP), the affinity, expressed as Ki, was 210 ± 10 nM.
On to `C[C@H](Oc1cccc(Cl)c1Cl)C(=O)Nc1ccc2nc(-c3ccncc3)oc2c1` [40a, (S)-2-(2,3-dichlorophenoxy)-N-(2-(pyridin-4-yl)benzo[d]oxazol-6-yl)propionamide], for which the LD50 in data set [2], in data set [3] and in data set [5] was over 50 µM each time. For the same compound, the half-life is at most 12 min in data set [4] (t1/2 (min) + NADPH, + NADPH) and at most 12 min in data set [4] (t1/2 (min) − NADPH, − NADPH).
For `CC(Oc1ccccc1Cl)C(=O)Nc1ccc2oc(-c3ccncc3)nc2c1` (stereo not drawn) [compound 41, 2-(2-chlorophenoxy)-N-(2-(pyridine-4-yl)benzo[d]oxazol-5-yl)propionamide], the LD50 in data set [2] is over 50 µM; in data set [3], over 50 µM; in data set [6] it was over 50 µM; in data set [5] it was ~ 12.5 μM.
As for `COc1ccc(OC(C)C(=O)Nc2ccc3oc(-c4ccncc4)nc3c2)cc1` (stereo not drawn) [compound 44, 2-(4-methoxyphenoxy)-N-(2-(pyridine-4-yl)benzo[d]oxazol-5-yl)propionamide], the LD50 in data set [2], in data set [3] and in data set [5] was over 50 µM in each case.
For `CC(Oc1cccc2ccccc12)C(=O)Nc1ccc2oc(-c3ccncc3)nc2c1` (stereo not drawn) [compound 48, 2-(naphthalene-1-yloxy)-N-(2-(pyridine-4-yl)benzo[d]oxazol-5-yl)propionamide], in data set [7], the “selectivity versus Toxo/WT” value is over 30 fold and the EC50 is at most 250 nM.
As to `CC(Oc1ccc(Cl)cc1Cl)C(=O)Nc1ccc2oc(-c3ccncc3)nc2c1` (stereo not drawn) [compound 1], in data set [1] (Kis (nM), Substrate IMP), the Ki worked out at 58 ± 5 nM. In data set [1] (Kis (nM), Substrate NAD), this compound came in with a Ki of 33 ± 8 nM. In addition, in data set [1], the “inhibition mechanism with respect to NAD+” value is “competitive” and the “inhibition mechanism with respect to IMP” value was “noncompetitive”.
Take `C[C@H](Oc1cccc(Cl)c1Cl)C(=O)Nc1ccc2oc(-c3cncs3)nc2c1` [compound 62, (S)-2-(2,3-dichlorophenoxy)-N-(2-(thiazol-5-yl)benzo[d]oxazol-5-yl)propionamide]: the half-life in data set [4] (t1/2 (min) + NADPH, + NADPH) was at most 12 min; in data set [4] (t1/2 (min) − NADPH, − NADPH) it was at most 12 min.
Regarding `C[C@H](Oc1cccc(Cl)c1Cl)C(=O)Nc1ccc2oc(-c3ccncc3)nc2c1` [compound 55, (S)-2-(2,3-dichlorophenoxy)-N-(2-(pyridin-4-yl)benzo[d]oxazol-5-yl)propionamide], the half-life in data set [4] (t1/2 (min) + NADPH, + NADPH) is at most 12 min; in data set [4] (t1/2 (min) − NADPH, − NADPH), at most 12 min.
With `C[C@H](Nc1cccc(Cl)c1Cl)C(=O)Nc1ccc2oc(-c3ccncc3)nc2c1` [15a, (S)-2-(2,3-dichlorophenylamino)-N-(2-(pyridine-4-yl)benzo[d]oxazol-5-yl) propionamide], the LD50 in data set [2], in data set [3] and in data set [5] was over 50 µM throughout.
As to `C[C@H](Oc1cccc([N+](=O)[O-])c1Cl)C(=O)Nc1ccc2oc(-c3ccncc3)nc2c1` [compound 57, (S)-2-(2-chloro-3-nitrophenoxy)-N-(2-(pyridine-4-yl)benzo[d]oxazol-5-yl)propionamide], the LD50 in data set [2], in data set [3] and in data set [5] was over 50 µM each time.
Take `CC(Oc1cccc(Cl)c1Cl)C(=O)Nc1ccc2oc(-c3ccncc3)nc2c1` (stereo not drawn) [compound 46, 2-(2,3-dichlorophenoxy)-N-(2-(pyridine-4-yl)benzo[d]oxazol-5-yl)propionamide]: the LD50 in data set [2], in data set [3] and in data set [5] was over 50 µM in each case. In data set [7], the “selectivity versus Toxo/WT” value is recorded as over 30 fold. Besides, the EC50 in data set [7] is at most 250 nM.

Broadly, the Ki is the dissociation constant of the complex between target and ligand, obtained from inhibition or displacement. In general, half-life refers to the time needed for the level to fall by half in the phase considered.
